These results are taken from paper PMC8185074, “Anchor extension: a structure-guided approach to design cyclic peptides targeting enzyme active sites” (Nature Communications, 2021).

Assay [1] concerns the target T1, HDAC2 (Homo sapiens, UniProt Q92769).
T1 construct: purchased Reaction Biology Corporation (assay run by the CRO)
The experiment in a line: Initial HDAC2 IC50 estimate (BPS Biosciences HDAC fluorogenic assay kit). In kind it is biochemical. On the procedure:
Initial IC50 values were estimated using HDAC fluorogenic assay kits from BPS Biosciences (HDAC2, HDAC4, and HDAC6) following the protocol described in the kit. All the measures were performed in duplicates or triplicates. These measurements were done either on full range of concentrations (1:10 dilution from 1 µM to 100 pM) or on two concentrations only (20 nM and 200 nM) as an estimate of the range. […] Source Data are provided as a Source Data file.

Assay [2] has as its target T1, HDAC2. Briefly: HDAC2 inhibition, full IC50 measurement (Reaction Biology; fluorogenic p53 peptide RHKK(Ac)AMC). Type of assay: biochemical. On the procedure: The assay was performed using 50 μM fluorogenic peptide from p53 residues 379-382 [RHKK(Ac)AMC] in a base reaction buffer of 50 mM Tris-HCl at pH 8.0, 137 mM NaCl, 2.7 mM KCl, 1 mM MgCl2, and freshly added 1 mg/ml BSA and 1% DMSO. Peptides were first dissolved in DMSO and then added to the reaction mixture with the enzyme using acoustic technique, enough to reach the desired concentration for that assay point. Peptide concentrations were calculated based on mass of lyophilized peptide and its molecular weight. The substrate was then added and incubated for 1 hour at 30 °C in a sealed container. After the incubation, developer was added to stop the reaction and develop color. Kinetic measurements were then performed for 20 min with Envision with 5 min intervals (Ex/Em = 360/460 nm). The endpoint after plateau was taken for IC50 measurement.
In cases where duplicate measures are used, average data is reported in the main text or Supplementary Tables.

The mark [3] stands for this setting: HDAC2 activity (initial activity), Supplementary Dataset 2.
The mark [4] stands for this setting: HDAC2 activity (initial values for HDAC2 IC50), Supp. Table 4, rough estimates, for promising hits full measurements.
Setting [5] is: Supplementary Dataset 2, read-out: HDAC2 activity (initial activity).

Structures are written as SMILES. Where two headings read alike, the source gives them in different places. Peptide text beside a SMILES is read from it.

T1 sequence (Q92769 whole entry): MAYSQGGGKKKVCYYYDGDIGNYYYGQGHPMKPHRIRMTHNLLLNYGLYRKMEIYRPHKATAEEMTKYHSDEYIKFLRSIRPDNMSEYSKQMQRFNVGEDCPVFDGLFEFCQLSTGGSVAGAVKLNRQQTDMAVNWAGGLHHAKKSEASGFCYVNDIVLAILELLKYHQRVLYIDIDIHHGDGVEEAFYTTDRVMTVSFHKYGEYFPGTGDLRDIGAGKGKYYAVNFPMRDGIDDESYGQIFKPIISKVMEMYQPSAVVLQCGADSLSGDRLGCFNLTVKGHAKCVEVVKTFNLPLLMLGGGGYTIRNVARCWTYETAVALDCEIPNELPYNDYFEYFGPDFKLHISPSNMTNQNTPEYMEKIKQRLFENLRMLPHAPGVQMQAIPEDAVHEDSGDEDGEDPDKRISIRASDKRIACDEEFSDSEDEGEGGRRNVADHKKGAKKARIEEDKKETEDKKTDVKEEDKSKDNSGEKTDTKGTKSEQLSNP

Regarding `C[C@H]1NC(=O)[C@H](CCCNC(=N)N)NC(=O)[C@@H](CC(N)=O)NC(=O)[C@@H](CC(N)=O)NC(=O)[C@H](CCC(=O)O)NC(=O)[C@@H](CC(=O)O)NC(=O)[C@@H](CC(N)=O)NC(=O)[C@H](CCCCCS)NC1=O` [des1.3.0, SHA-dAsn-dAsp-Glu-dAsn-dAsn-Arg-dAla] (HELM PEPTIDE1{E.[dN].[dN].R.[dA].[O=C([C@H](CCCCCS)N[*:1])[*:2]].[dN].[dD]}$PEPTIDE1,PEPTIDE1,1:R1-8:R2$$$V2.0), the IC50 at HDAC2 [1] (setting [3]) is 1000 nM.
With `N=C(N)NCCC[C@@H]1NC(=O)[C@@H](CCCNC(=N)N)NC(=O)[C@H]2CCCN2C(=O)[C@@H](Cc2c[nH]cn2)NC(=O)[C@H](Cc2ccc(O)cc2)NC(=O)[C@H](CCCCCS)NC(=O)[C@H](CCc2ccccc2)NC(=O)[C@H]2CCCN2C(=O)[C@H](CC(=O)O)NC1=O` [des3.2.1, SHA-Tyr-dHis-dPro-dArg-Arg-Asp-dPro-C27] (HELM PEPTIDE1{D.[dP].[O=C([C@H](CCc1ccccc1)N[*:1])[*:2]].[O=C([C@H](CCCCCS)N[*:1])[*:2]].Y.[dH].[dP].[dR].R}$PEPTIDE1,PEPTIDE1,1:R1-9:R2$$$V2.0), the IC50 on HDAC2 [1] (setting [4]) is 66 nM. On HDAC2 [2], the “2-Selectivity: fold potency for HDAC2 over HDAC6” value (“2-Selectivity: fold potency” below) is on record as 0.44 fold.
`N=C(N)NCCC[C@H]1NC(=O)[C@H]2CCCN2C(=O)[C@@H](Cc2c[nH]cn2)NC(=O)[C@H](Cc2ccc(O)cc2)NC(=O)[C@H](CCCCCS)NC(=O)[C@H](CCc2ccccc2)NC(=O)[C@H]2CCCN2C(=O)[C@H](CC(=O)O)NC(=O)[C@@H]2CCCN2C1=O` [des3.2.3, SHA-Tyr-dHis-dPro-dArg-Pro-Asp-dPro-C27] (HELM PEPTIDE1{D.[dP].[O=C([C@H](CCc1ccccc1)N[*:1])[*:2]].[O=C([C@H](CCCCCS)N[*:1])[*:2]].Y.[dH].[dP].[dR].P}$PEPTIDE1,PEPTIDE1,1:R1-9:R2$$$V2.0): at HDAC2 [1] (setting [3]), the IC50 is 92 nM. In addition, the “2-Selectivity: fold potency” value on HDAC2 [2] worked out at 0.47 fold.
Regarding `NCCCC[C@@H]1NC(=O)[C@@H]2CCCN2C(=O)[C@H](CC(N)=O)NC(=O)[C@H](CCCCCS)NC(=O)CNC(=O)[C@H](Cc2c[nH]c3ccccc23)NC(=O)[C@@H](CCCCN)NC(=O)[C@H](CO)NC1=O` [des1.1.4, SHA-Asn-Pro-Lys-Ser-dLys-Trp-Gly] (HELM PEPTIDE1{G.[O=C([C@H](CCCCCS)N[*:1])[*:2]].N.P.K.S.[dK].W}$PEPTIDE1,PEPTIDE1,1:R1-8:R2$$$V2.0), the IC50 is 100 nM on HDAC2 [1] (setting [3]) and 10 to 100 nM at HDAC2 [1] (setting [4]).
With `CCCC[C@H]1NC(=O)[C@@H](CCCCN)NC(=O)[C@H](CCCCCS)NC(=O)[C@@H](C)NC(=O)[C@H](CCCNC(=N)N)NC(=O)[C@@H]([C@H](C)O)NC(=O)[C@@H](CC(N)=O)NC(=O)[C@H](CCC(=O)O)NC1=O` [des1.2.0, SHA-dLys-dNle-Glu-dAsn-dThr-Arg-dAla] (HELM PEPTIDE1{E.[dN].[dT].R.[dA].[O=C([C@H](CCCCCS)N[*:1])[*:2]].[dK].[CCCC[C@@H](N[*:1])C(=O)[*:2]]}$PEPTIDE1,PEPTIDE1,1:R1-8:R2$$$V2.0), the IC50 at HDAC2 [1] (setting [5]) was 100000 nM.
Turning to `CC(C)C[C@H]1NC(=O)[C@H](Cc2c[nH]c3ccccc23)NC(=O)[C@H](CCCCCS)NC(=O)[C@@H](Cc2ccc(O)cc2)NC(=O)[C@@H]([C@H](C)O)NC(=O)[C@H](Cc2c[nH]cn2)NC(=O)CNC(=O)[C@H]2CCCN2C(=O)[C@@H](CO)NC1=O` [des2.2.2, SHA-Trp-dLeu-dSer-dPro-Gly-His-dThr-dTyr] (HELM PEPTIDE1{G.H.[dT].[dY].[O=C([C@H](CCCCCS)N[*:1])[*:2]].W.[dL].[dS].[dP]}$PEPTIDE1,PEPTIDE1,1:R1-9:R2$$$V2.0), the IC50 at HDAC2 [1] (setting [3]) is 500 nM.
Same read-out and setting: then `CC(C)C[C@@H]1NC(=O)[C@@H](CCC(=O)O)NC(=O)[C@@H](CC(N)=O)NC(=O)[C@@H](Cc2c[nH]cn2)NC(=O)[C@H](CCCCCS)NC(=O)[C@H](Cc2ccc3ccccc3c2)NC(=O)[C@H](CCCNC(=N)N)NC(=O)[C@@H]2CCCN2C(=O)[C@@H](C)NC1=O` [des3.8.0, SHA-dHis-dAsn-dGlu-Leu-dAla-Pro-Arg-B74] (HELM PEPTIDE1{[O=C([C@H](Cc1ccc2ccccc2c1)N[*:1])[*:2]].[O=C([C@H](CCCCCS)N[*:1])[*:2]].[dH].[dN].[dE].L.[dA].P.R}$PEPTIDE1,PEPTIDE1,1:R1-9:R2$$$V2.0), with over 1000 nM.
Regarding `N=C(N)NCCC[C@H]1NC(=O)[C@H]2CCCN2C(=O)[C@@H](Cc2c[nH]cn2)NC(=O)[C@H](Cc2ccc(O)cc2)NC(=O)[C@H](CCCCCS)NC(=O)[C@H](CCc2ccccc2)NC(=O)[C@@H](CCCCN)NC(=O)[C@H](CC(=O)O)NC(=O)[C@@H]2CCCN2C1=O` [des3.2.2, SHA-Tyr-dHis-dPro-dArg-Pro-Asp-dLys-C27] (HELM PEPTIDE1{D.[dK].[O=C([C@H](CCc1ccccc1)N[*:1])[*:2]].[O=C([C@H](CCCCCS)N[*:1])[*:2]].Y.[dH].[dP].[dR].P}$PEPTIDE1,PEPTIDE1,1:R1-9:R2$$$V2.0), the IC50 on HDAC2 [1] (setting [5]) was 58 nM. In addition, at HDAC2 [2], the “2-Selectivity: fold potency” value stood at 0.41 fold.
Turning to `C[C@H]1NC(=O)[C@@H](Cc2c[nH]cn2)NC(=O)[C@H](CCCCCS)NC(=O)[C@H](Cc2c[nH]c3ccccc23)NC(=O)[C@@H](CCCNC(=N)N)NC(=O)[C@@H]2CCCN2C(=O)[C@@H](CC(N)=O)NC(=O)[C@@H](CC(N)=O)NC(=O)[C@H](Cc2ccc(O)cc2)NC1=O` [des3.6.0, SHA-dHis-dAla-Tyr-dAsn-dAsn-Pro-dArg-Trp] (HELM PEPTIDE1{P.[dR].W.[O=C([C@H](CCCCCS)N[*:1])[*:2]].[dH].[dA].Y.[dN].[dN]}$PEPTIDE1,PEPTIDE1,1:R1-9:R2$$$V2.0), the IC50 at HDAC2 [1] (setting [3]) is over 1000 nM.
Regarding `C[C@H]1NC(=O)[C@H](CCCCCS)NC(=O)[C@H](CCN)NC(=O)[C@@H](CC(N)=O)NC(=O)[C@H](CO)NC(=O)[C@H](CC(=O)O)NC(=O)[C@@H](CC(=O)O)NC(=O)[C@@H]2CCCN2C(=O)[C@H](Cc2ccccc2)NC1=O` [des3.5.1, SHA-dAla-Phe-Pro-dAsp-Asp-Ser-dAsn-Dab] (HELM PEPTIDE1{D.S.[dN].[Dab].[O=C([C@H](CCCCCS)N[*:1])[*:2]].[dA].F.P.[dD]}$PEPTIDE1,PEPTIDE1,1:R1-9:R2$$$V2.0), on HDAC2 [1] (setting [3]), the IC50 was over 1000 nM.
Same read-out and setting: then `N=C(N)NCCC[C@@H]1NC(=O)[C@@H](CCCNC(=N)N)NC(=O)[C@H]2CCCN2C(=O)[C@@H](CC(N)=O)NC(=O)[C@H](Cc2ccc(O)cc2)NC(=O)[C@H](CCCCCS)NC(=O)[C@H](CCc2ccccc2)NC(=O)[C@@H](CCCCN)NC(=O)[C@H](CC(=O)O)NC1=O` [des3.4.0, SHA-Tyr-dAsn-dPro-dArg-Arg-Asp-dLys-C27] (HELM PEPTIDE1{D.[dK].[O=C([C@H](CCc1ccccc1)N[*:1])[*:2]].[O=C([C@H](CCCCCS)N[*:1])[*:2]].Y.[dN].[dP].[dR].R}$PEPTIDE1,PEPTIDE1,1:R1-9:R2$$$V2.0), with 10 to 100 nM; and `C[C@@H]1NC(=O)[C@@H](CCCNC(=N)N)NC(=O)[C@H](CCCCCS)NC(=O)[C@H](CCc2ccccc2)NC(=O)[C@@H](CCCNC(=N)N)NC(=O)[C@@H](Cc2ccccc2)NC(=O)[C@@H](CCC(=O)O)NC(=O)[C@@H](CCCCN)NC(=O)[C@@H]2CCCN2C1=O` [des3.10.0, SHA-dArg-Ala-Pro-dLys-dGlu-dPhe-dArg-C27] (HELM PEPTIDE1{A.P.[dK].[dE].[dF].[dR].[O=C([C@H](CCc1ccccc1)N[*:1])[*:2]].[O=C([C@H](CCCCCS)N[*:1])[*:2]].[dR]}$PEPTIDE1,PEPTIDE1,1:R1-9:R2$$$V2.0), with 10 to 100 nM.
As for `N=C(N)NCCC[C@@H]1NC(=O)[C@@H](CCCNC(=N)N)NC(=O)[C@H]2CCCN2C(=O)[C@@H](Cc2c[nH]cn2)NC(=O)[C@H](Cc2ccc(O)cc2)NC(=O)[C@H](CCCCCS)NC(=O)[C@H](CCc2ccccc2)NC(=O)[C@@H](CCCCN)NC(=O)[C@H](CC(=O)O)NC1=O` [des3.2.0, SHA-Tyr-dHis-dPro-dArg-Arg-Asp-dLys-C27] (HELM PEPTIDE1{D.[dK].[O=C([C@H](CCc1ccccc1)N[*:1])[*:2]].[O=C([C@H](CCCCCS)N[*:1])[*:2]].Y.[dH].[dP].[dR].R}$PEPTIDE1,PEPTIDE1,1:R1-9:R2$$$V2.0), the IC50 on HDAC2 [1] (Supp. Table 4, rough estimates, for promising hits full measurements, read-out: HDAC2 activity (initial values for HDAC2 IC50)) was 28 nM; at HDAC2 [1] (setting [5]) it was over 10 nM. Besides, on HDAC2 [2], the “2-Selectivity: fold potency” value is on record as 0.53 fold.
On to `NCCCC[C@@H]1NC(=O)[C@@H]2CCCN2C(=O)[C@H](CC(N)=O)NC(=O)[C@H](CCCCCS)NC(=O)CNC(=O)[C@H](Cc2c[nH]c3ccccc23)NC(=O)[C@@H](CCCCN)NC(=O)[C@H](CN)NC1=O` [des1.1.3, SHA-Asn-Pro-Lys-Dap-dLys-Trp-Gly] (HELM PEPTIDE1{[NC[C@H](N[*:1])C(=O)[*:2]].[dK].W.G.[O=C([C@H](CCCCCS)N[*:1])[*:2]].N.P.K}$PEPTIDE1,PEPTIDE1,1:R1-8:R2$$$V2.0), for which the IC50 at HDAC2 [1] (setting [3]) is 100 nM; at HDAC2 [1] (setting [4]), 10 to 100 nM.
For the molecule `CCCC[C@@H]1NC(=O)[C@H](CCCCCS)NC(=O)[C@H](CCc2ccccc2)NC(=O)[C@H](C)NC(=O)[C@@H]2CCCN2C(=O)[C@@H](CC(=O)O)NC(=O)[C@@H](CO)NC(=O)[C@H](Cc2c[nH]c3ccccc23)NC(=O)[C@@H](CO)NC1=O` [des3.7.0, SHA-Nlu-dSer-Trp-dSer-dAsp-Pro-Ala-C27] (HELM PEPTIDE1{[O=C([C@H](CCCCCS)N[*:1])[*:2]].[Nle].[dS].W.[dS].[dD].P.A.[O=C([C@H](CCc1ccccc1)N[*:1])[*:2]]}$PEPTIDE1,PEPTIDE1,1:R1-9:R2$$$V2.0), the IC50 at HDAC2 [1] (setting [5]) is over 1000 nM.
